From patent US20210254056A1, “IDENTIFICATION AND TARGETED MODULATION OF GENE SIGNALING NETWORKS” (CAMP4 THERAPEUTICS CORPORATION, priority 2017, published 2021)
Where two headings read alike, the source gives them in different places.

System: hepatocytes
Experiment: RNA-seq of hepatocytes treated with Phase III failure compounds
Details: for significant changes in gene expression: RNA-seq of Table 36, FPKM≥0.5, log 2(fold-change)≥1, q-value≤0.05; for significant modulation of expression of any of the genes analyzed: p≤0.05
Experimental: RNA-seq was performed to determine the effects of the compounds on hepatocytes.
Significance was determined by the criteria of FPKM≥0.5, a log 2(fold-change)≥1, and a […].

CCCCCCCCCCCCCCCCOCCCOP(=O)(O)CO[C@H](CO)Cn1ccc(N)nc1=O [CMX001 (Brincidofovir), Brincidofovir]
significant changes in gene expression: not observed to cause any significant changes in gene expression | significant modulation of expression of any of the genes analyzed (RNA-seq, hepatocytes): not observed to significantly modulate expression | effect on disease gene expression (RNA-seq, hepatocytes): no effect on any disease gene

C=CC(=O)Nc1cccc(Nc2nc(Nc3ccc(N4CCN(C(C)=O)CC4)cc3OC)ncc2C(F)(F)F)c1 [CO-1686 (Rociletinib), Rociletinib]
Number (#) of genes having significantly changed expression (RNA-seq, Phase III failure compounds, hepatocytes, significance: FPKM≥0.5, log 2(fold-change)≥1, q-value≥0.05 (so in the source)): 391 | B2M expression, RNA-seq result (gene B2M, hepatocytes): −0.08 | B9D2 expression, RNA-seq result (gene B9D2, hepatocytes): −0.29 | BAAT expression, RNA-seq result (gene BAAT, hepatocytes): 0.22 | BBOX1 expression, RNA-seq result (gene BBOX1, hepatocytes): −0.45 | BBS10 expression, RNA-seq result (gene BBS10, hepatocytes): −0.28 | BCHE expression, RNA-seq result (gene BCHE, hepatocytes): −0.79 | BCKDHB expression, RNA-seq result (gene BCKDHB, hepatocytes): −0.38 | BCKDK expression, RNA-seq result (gene BCKDK, hepatocytes): −0.45 | BCO1 expression, RNA-seq result (gene BCO1, hepatocytes): −0.53 | BCR expression, RNA-seq result (gene BCR, hepatocytes): −0.26 | BLNK expression, RNA-seq result (gene BLNK, hepatocytes): 0.75 | BLOC1S3 expression, RNA-seq result (gene BLOC1S3, hepatocytes): 0.76 | BMPR1A expression, RNA-seq result (gene BMPR1A, hepatocytes): 0.07 | BRAF expression, RNA-seq result (gene BRAF, hepatocytes): 0.32 | BSCL2 expression, RNA-seq result (gene BSCL2, hepatocytes): −0.58 | BTD expression, RNA-seq result (gene BTD, hepatocytes): 0.25 | C4A expression, RNA-seq result (gene C4A, hepatocytes): 0.16 | C9 expression, RNA-seq result (gene C9, hepatocytes): −0.21 | C10orf10 expression, RNA-seq result (gene C10orf10, hepatocytes): 0.81 | C10orf11 expression, RNA-seq result (gene C10orf11, hepatocytes): 0.1 | C15orf41 expression, RNA-seq result (gene C15orf41, hepatocytes): 0.03 | CA2 expression, RNA-seq result (gene CA2, hepatocytes): 0.48 | CA5A expression, RNA-seq result (gene CA5A, hepatocytes): −0.02 | CA12 expression, RNA-seq result (gene CA12, hepatocytes): 0.59 | CAV1 expression, RNA-seq result (gene CAV1, hepatocytes): −0.47 | CCND1 expression, RNA-seq result (gene CCND1, hepatocytes): −2.24 | CD46 expression, RNA-seq result (gene CD46, hepatocytes): −0.02 | CD81 expression, RNA-seq result (gene CD81, hepatocytes): 0.02 | CD320 expression, RNA-seq result (gene CD320, hepatocytes): −0.58 | CDAN1 expression, RNA-seq result (gene CDAN1, hepatocytes): 0.02 | CDH1 expression, RNA-seq result (gene CDH1, hepatocytes): −0.25 | CEP19 expression, RNA-seq result (gene CEP19, hepatocytes): −0.43 | CEP83 expression, RNA-seq result (gene CEP83, hepatocytes): −0.13 | CEP164 expression, RNA-seq result (gene CEP164, hepatocytes): −0.32 | CEP290 expression, RNA-seq result (gene CEP290, hepatocytes): −0.17 | CFB expression, RNA-seq result (gene CFB, hepatocytes): 0.17 | CFHR2 expression, RNA-seq result (gene CFHR2, hepatocytes): −0.16 | CHRM3 expression, RNA-seq result (gene CHRM3, hepatocytes): −0.14 | CIDEC expression, RNA-seq result (gene CIDEC, hepatocytes): 0.24 | CLDN1 expression, RNA-seq result (gene CLDN1, hepatocytes): −0.71 | COG1 expression, RNA-seq result (gene COG1, hepatocytes): −0.28

COc1cc2c(Oc3ccc4[nH]c(C)cc4c3F)ncnc2cc1OCCCN1CCCC1 [Cediranib]
RNA-seq results, CYP2B6 expression: −0.46 | RNA-seq results, CYP2C19 expression: −0.80 | RNA-seq results, CYP2D6 expression: −0.12 | RNA-seq results, CYP3A4 expression: −0.75 | RNA-seq results, CYP7B1 expression: −0.93 | RNA-seq results, CYP39A1 expression: −0.61 | RNA-seq results: CYP2B6 expression: 0.41 | RNA-seq results: CYP2C19 expression: −1 | RNA-seq results: CYP2D6 expression: 0.79 | RNA-seq results: CYP3A4 expression: 1.58 | RNA-seq results: CYP7B1 expression: −0.02 | RNA-seq results: CYP39A1 expression: −0.24 | significant modulation of expression of disease genes (RNA-seq, q≤0.05, hepatocytes, genes in the value or listed in the block): significantly (q≤0.05) modulate expression | effect on disease gene expression (RNA-seq, hepatocytes): effect on expression of too many disease genes | genes down-regulated by the compound (RNA-seq, hepatocytes, gene named in the value): down-regulate Factor V levels | RNA-seq results: A1BG expression (gene A1BG, hepatocytes): 0.15 | RNA-seq results: AGTR1 expression (gene AGTR1, hepatocytes): −0.32 | RNA-seq results: AGXT expression (gene AGXT, hepatocytes): −0.23 | RNA-seq results: AHI1 expression (gene AHI1, hepatocytes): −0.17 | RNA-seq results: AMPD3 expression (gene AMPD3, hepatocytes): −0.52 | RNA-seq results: AMT expression (gene AMT, hepatocytes): −0.23 | RNA-seq results: ANGPTL3 expression (gene ANGPTL3, hepatocytes): −1.40 | RNA-seq results: ANKS4B expression (gene ANKS4B, hepatocytes): −0.31 | RNA-seq results: ANKS6 expression (gene ANKS6, hepatocytes): 0.09 | RNA-seq results: ANPEP expression (gene ANPEP, hepatocytes): −0.85 | RNA-seq results: AOC2 expression (gene AOC2, hepatocytes): −0.47 | RNA-seq results: APOA2 expression (gene APOA2, hepatocytes): 0.16 | RNA-seq results: APOA5 expression (gene APOA5, hepatocytes): −0.08 | RNA-seq results: APOB expression (gene APOB, hepatocytes): −0.99 | RNA-seq results: COG5 expression (gene COG5, hepatocytes): −0.45 | RNA-seq results: COG6 expression (gene COG6, hepatocytes): −0.46 | RNA-seq results: COL1A1 expression (gene COL1A1, hepatocytes): −0.72 | RNA-seq results: COX6A1 expression (gene COX6A1, hepatocytes): 0.16 | RNA-seq results: CP expression (gene CP, hepatocytes): 0.53 | RNA-seq results: CPS1 expression (gene CPS1, hepatocytes): −0.28 | RNA-seq results: CPT1A expression (gene CPT1A, hepatocytes): 0.16 | RNA-seq results: CPT2 expression (gene CPT2, hepatocytes): 1.26 | RNA-seq results: CROT expression (gene CROT, hepatocytes): 0.55 | RNA-seq results: CSPP1 expression (gene CSPP1, hepatocytes): −0.7 | RNA-seq results: CTC1 expression (gene CTC1, hepatocytes): −0.9 | RNA-seq results: CTDSP2 expression (gene CTDSP2, hepatocytes): −0.18 | RNA-seq results: CTH expression (gene CTH, hepatocytes): 0.66 | RNA-seq results: CTNS expression (gene CTNS, hepatocytes): −1.18 | RNA-seq results: CTSF expression (gene CTSF, hepatocytes): 0.6 | RNA-seq results: CTSK expression (gene CTSK, hepatocytes): 0.02 | RNA-seq results: CYB5A expression (gene CYB5A, hepatocytes): −0.16 | RNA-seq results: CYB5R3 expression (gene CYB5R3, hepatocytes): 0.14 | RNA-seq results: CYP27A1 expression (gene CYP27A1, hepatocytes): 0.51 | RNA-seq results: DAO expression (gene DAO, hepatocytes): 0.23 | RNA-seq results: DBT expression (gene DBT, hepatocytes): −0.33 | RNA-seq results: DCDC2 expression (gene DCDC2, hepatocytes): −1.25 | RNA-seq results: DCXR expression (gene DCXR, hepatocytes): 0.96 | RNA-seq results: FABP1 expression (gene FABP1, hepatocytes): 0.4 | RNA-seq results: FADD expression (gene FADD, hepatocytes): −0.23 | RNA-seq results: FAM111A expression (gene FAM111A, hepatocytes): −0.68 | RNA-seq results: FAM111B expression (gene FAM111B, hepatocytes): −0.13 | RNA-seq results: FAN1 expression (gene FAN1, hepatocytes): −1.14 | RNA-seq results: FARS2 expression (gene FARS2, hepatocytes): −0.84 | RNA-seq results: FASLG expression (gene FASLG, hepatocytes): −1.48 | RNA-seq results: FGA expression (gene FGA, hepatocytes): 0.87 | RNA-seq results: FGD1 expression (gene FGD1, hepatocytes): −0.22 | RNA-seq results: FGFR2 expression (gene FGFR2, hepatocytes): −0.16 | RNA-seq results: FIG4 expression (gene FIG4, hepatocytes): −0.45 | RNA-seq results: FIS1 expression (gene FIS1, hepatocytes): −0.27 | RNA-seq results: FTCD expression (gene FTCD, hepatocytes): −0.68 | RNA-seq results: FTH1 expression (gene FTH1, hepatocytes): −0.17 | RNA-seq results: FUCA1 expression (gene FUCA1, hepatocytes): 1.44 | RNA-seq results: FXN expression (gene FXN, hepatocytes): −1.56 | RNA-seq results: G6PC3 expression (gene G6PC3, hepatocytes): −0.89 | RNA-seq results: G6PC expression (gene G6PC, hepatocytes): 0.32 | RNA-seq results: G6PD expression (gene G6PD, hepatocytes): 1.51 | RNA-seq results: GALK1 expression (gene GALK1, hepatocytes): −0.27 | RNA-seq results: GALK2 expression (gene GALK2, hepatocytes): 0.04 | RNA-seq results: GALT expression (gene GALT, hepatocytes): −0.02 | RNA-seq results: GATA6 expression (gene GATA6, hepatocytes): −0.1 | RNA-seq results: GATM expression (gene GATM, hepatocytes): −0.66 | RNA-seq results: GBA expression (gene GBA, hepatocytes): −0.06 | RNA-seq results: GBE1 expression (gene GBE1, hepatocytes): −0.62 | RNA-seq results: GCH1 expression (gene GCH1, hepatocytes): 1.49 | RNA-seq results: GCKR expression (gene GCKR, hepatocytes): −1.15 | RNA-seq results: GCLC expression (gene GCLC, hepatocytes): 0.3 | RNA-seq results: GOSH expression (gene GOSH, hepatocytes): −0.39 | RNA-seq results: RRM2B (gene RRM2B, hepatocytes): −0.75 | RNA-seq results: RSAD1 (gene RSAD1, hepatocytes): 0.13 | RNA-seq results: SAMHD1 (gene SAMHD1, hepatocytes): −1.05 | RNA-seq results: SC5D (gene SC5D, hepatocytes): 0.51 | RNA-seq results: SCARB1 (gene SCARB1, hepatocytes): −0.30 | RNA-seq results: SCN9A (gene SCN9A, hepatocytes): −0.39 | RNA-seq results: SDCCAG8 (gene SDCCAG8, hepatocytes): −0.30 | RNA-seq results: SEPN1 (gene SEPN1, hepatocytes): −0.85 | RNA-seq results: SERAC1 (gene SERAC1, hepatocytes): −0.14 | RNA-seq results: SERPINA1 (gene SERPINA1, hepatocytes): −0.19 | RNA-seq results: SERPING1 (gene SERPING1, hepatocytes): −0.29 | RNA-seq results: SERPINI1 (gene SERPINI1, hepatocytes): −0.73 | RNA-seq results: SETBP1 (gene SETBP1, hepatocytes): −0.30 | RNA-seq results: SFXN4 (gene SFXN4, hepatocytes): −0.01 | RNA-seq results: SLC10A1 (gene SLC10A1, hepatocytes): −0.88 | RNA-seq results: SLC10A3 (gene SLC10A3, hepatocytes): −0.50 | RNA-seq results: SLC10A5 (gene SLC10A5, hepatocytes): −0.90 | RNA-seq results: SLC10A7 (gene SLC10A7, hepatocytes): −0.52 | RNA-seq results: SLC11A2 (gene SLC11A2, hepatocytes): −0.59 | RNA-seq results: SLC19A1 (gene SLC19A1, hepatocytes): −0.45 | RNA-seq results: SLC19A2 (gene SLC19A2, hepatocytes): −0.03 | RNA-seq results: SLC19A3 (gene SLC19A3, hepatocytes): −0.68 | RNA-seq results: SLC22A1 (gene SLC22A1, hepatocytes): −0.13 | RNA-seq results: SLC22A5 (gene SLC22A5, hepatocytes): 0.06 | RNA-seq results: SLC25A1 (gene SLC25A1, hepatocytes): −0.09 | RNA-seq results: SLC25A10 (gene SLC25A10, hepatocytes): −0.40 | RNA-seq results: SLC25A12 (gene SLC25A12, hepatocytes): −0.41 | RNA-seq results: SLC25A13 (gene SLC25A13, hepatocytes): −0.29 | RNA-seq results: SLC25A15 (gene SLC25A15, hepatocytes): −0.47 | RNA-seq results: SLC25A19 (gene SLC25A19, hepatocytes): 0.26 | RNA-seq results: SLC25A20 (gene SLC25A20, hepatocytes): −0.32 | RNA-seq results: SLC25A29 (gene SLC25A29, hepatocytes): −0.11 | RNA-seq results: SLC25A32 (gene SLC25A32, hepatocytes): −0.13

C=CCNC1=C2C[C@@H](C)C[C@H](OC)[C@H](O)[C@@H](C)/C=C(\C)[C@H](OC(N)=O)[C@@H](OC)/C=C\C=C(/C)C(=O)NC(=CC1=O)C2=O [Compound 17-AAG]
Number (#) of genes having significantly changed expression: 1558

Cc1ccc2c(=O)c3cccc(CC(=O)O)c3oc2c1C [DMXAA]
significant changes in gene expression: not observed to cause any significant changes in gene expression | significant modulation of expression of any of the genes analyzed (RNA-seq, hepatocytes): not observed to significantly modulate expression | effect on disease gene expression (RNA-seq, hepatocytes): no effect on any disease gene
